Laboratory results from US7541368B2, “Pyrazoles as inhibitors of tumor necrosis factor” (Aventis Pharmaceuticals Inc., priority 2003, dated 2009).

These molecules were tested on TNF-alpha release in THP-1 cells (assay: LPS-induced TNF-alpha release in THP-1 cells). Conditions: Homo sapiens, THP-1, LPS-stimulated THP-1 cells; read-out: 50% inhibition in the LPS-induced TNF-alpha release in THP-1 cells assay at concentrations within the range.
Assay type: cell-based
Method: The effects of compounds on TNF-alpha production by lipopolysaccharide (LPS)-stimulated […] monocytes were examined as follows.
Undifferentiated THP-1 cells were maintained in RPMI 1640 with Glutamax I containing β-mercaptoethananol (50 μM) and foetal calf serum (FCS-10%) at densities of about 1×10^6 cells per ml. For incubations without and with test reagents, cells were seeded at the indicated densities under serum-deprived (1% FCS) conditions. Compounds were dissolved in dimethylsulfoxide (DMSO-100%) and incubated with the cells to give a fmal DMSO concentration of 0.3%. Control and untreated cell samples were incubated with DMSO (0.3%).
THP-1 cells (1×10 ^6 cells/ml, total volume 150 μl) in culture medium were incubated for 1 hour (5% CO2, 37° C.) with fresh medium containing compounds or vehicle (0.1-0.3% dimethylsulfoxide). LPS (20 μg/ml) was then added to the cells and the incubation continued for a fuirther 18 hours. Cell supernatants were removed into 96 well plates for storage at −20° C.
TNF-alpha concentrations in cell supernatants were quantified by sandwich ELISA. Briefly, ELISA plates were coated overnight with 2 μg/ml of mouse anti-human TNF-alpha antibody in bicarbonate buffer (pH 9.9). After washing the wells with wash buffer (0.05% (v/v) Tween in PBS)and blocking unoccupied sites (1% BSA in wash buffer), monocyte supernatant samples or human recombinant TNF-alpha standards were added into the corresponding wells of the ELISA plate at 1:10 dilution. Biotinylated rabbit polyclonal anti-human TNF-alpha antibody (3 μg/ml) was used as the second antibody and streptavidin-horseradish peroxidase was used as the detection antibody. The peroxidase substrate is 3,3′,5,5′-tetramethylbenzidine (TMB) in the presence of hydrogen peroxide.
TNFα concentrations in supernatants from control and LPS-stimulated monocyte incubations were calculated by interpolation from a standard (log/log) curve (0.125-16 ng/ml) fitted by Excel Fit using the Activity Base software. Compounds were tested within the concentration range of 1×10^−9M to 1×10^−6M.

IC50, 0.01 to 0.5 µM:
Cc1ccc(-n2nc(C(C)(C)C)cc2NC(=O)Nc2cccc(CC3CCN(C(=O)Cc4cccs4)CC3)c2)cc1 [Compound A189, 1-(5-tert-Butyl-2-p-tolyl-2H-pyrazol-3-yl)-3-{3-[1-(2-thiophen-2-yl-acetyl)-piperidin-4-ylmethyl]-phenyl}-urea]
Cc1ccc(-n2nc(C(C)(C)C)cc2NC(=O)Nc2cccc(CC3CCN(C(=O)Cc4ccsc4)CC3)c2)cc1 [Compound A190, 1-(5-tert-Butyl-2-p-tolyl-2H-pyrazol-3-yl)-3-{3-[1-(2-thiophen-3-yl-acetyl)-piperidin-4-ylmethyl]-phenyl}-urea]
CO[C@H](C(=O)N1CCC(Cc2ccc(NC(=O)Nc3cc(C(C)(C)C)nn3-c3ccc(C)cc3)cc2)CC1)c1ccccc1 [Compound A193, 1-(5-tert-Butyl-2-p-tolyl-2H-pyrazol-3-yl)-3-{4-[1-((S)-2-methoxy-2-phenyl-acetyl)-piperidin-4-ylmethyl]-phenyl}-urea]
Cc1ccc(-n2nc(C(C)(C)C)cc2NC(=O)Nc2ccc(CC3CCN(C(=O)c4csnn4)CC3)cc2)cc1 [Compound A196, 1-(5-tert-Butyl-2-p-tolyl-2H-pyrazol-3-yl)-3-{4-[1-([1,2,3]thiadiazole-4-carbonyl)-piperidin-4-ylmethyl]-phenyl}-urea]
Cc1ccc(-n2nc(C(C)(C)C)cc2NC(=O)Nc2ccc(CC3CCN(C(=O)c4ccc5cnccc5n4)CC3)cc2)cc1 [Compound A197, 1-(5-tert-Butyl-2-p-tolyl-2H-pyrazol-3-yl)-3-{4-[1-([1,6]naphthyridine-2-carbonyl)-piperidin-4-ylmethyl]-phenyl}-urea]
Cc1ccc(-n2nc(C(C)(C)C)cc2NC(=O)Nc2ccc(CC3CCN(C(=O)C4(C)CC4)CC3)cc2)cc1 [Compound A206, 1-(5-tert-Butyl-2-p-tolyl-2H-pyrazol-3-yl)-3-{4-[1-(1-methyl-cyclopropanecarbonyl)-piperidin-4-ylmethyl]-phenyl}-urea]
COc1cccc(C(=O)N2CCC(Cc3ccc(NC(=O)Nc4cc(C(C)(C)C)nn4-c4ccc(C)cc4)cc3)CC2)c1OC [Compound A212, 1-(5-tert-Butyl-2-p-tolyl-2H-pyrazol-3-yl)-3-{4-[1-(2,3-dimethoxy-benzoyl)-piperidin-4-ylmethyl]-phenyl}-urea]
COc1cccc(CC(=O)N2CCC(Cc3ccc(NC(=O)Nc4cc(C(C)(C)C)nn4-c4ccc(C)cc4)cc3)CC2)c1OC [Compound A213, 1-(5-tert-Butyl-2-p-tolyl-2H-pyrazol-3-yl)-3-(4-{1-[2-(2,3-dimethoxy-phenyl)-acetyl]-piperidin-4-ylmethyl}-phenyl)-urea]
COc1cc(OC)c(C(=O)N2CCC(Cc3ccc(NC(=O)Nc4cc(C(C)(C)C)nn4-c4ccc(C)cc4)cc3)CC2)c(OC)c1 [Compound A215, 1-(5-tert-Butyl-2-p-tolyl-2H-pyrazol-3-yl)-3-{4-[1-(2,4,6-trimethoxy-benzoyl)-piperidin-4-ylmethyl]-phenyl}-urea]
Cc1ccc(-n2nc(C(C)(C)C)cc2NC(=O)Nc2ccc(CC3CCN(C(=O)c4c(C)cc(C)cc4C)CC3)cc2)cc1 [Compound A216, 1-(5-tert-Butyl-2-p-tolyl-2H-pyrazol-3-yl)-3-{4-[1-(2,4,6-trimethyl-benzoyl)-piperidin-4-ylmethyl]-phenyl}-urea]
Cc1ccc(-n2nc(C(C)(C)C)cc2NC(=O)Nc2ccc(CC3CCN(C(=O)c4cc(C)oc4C)CC3)cc2)cc1 [Compound A222, 1-(5-tert-Butyl-2-p-tolyl-2H-pyrazol-3-yl)-3-{4-[1-(2,5-dimethyl-furan-3-carbonyl)-piperidin-4-ylmethyl]-phenyl}-urea]
COc1ccc(C(=O)N2CCC(Cc3ccc(NC(=O)Nc4cc(C(C)(C)C)nn4-c4ccc(C)cc4)cc3)CC2)c(OC)n1 [Compound A224, 1-(5-tert-Butyl-2-p-tolyl-2H-pyrazol-3-yl)-3-{4-[1-(2,6-dimethoxy-pyridine-3-carbonyl)-piperidin-4-ylmethyl]-phenyl}-urea]
Cc1ccc(-n2nc(C(C)(C)C)cc2NC(=O)Nc2ccc(CC3CCN(C(=O)c4csc(-c5cccnc5)n4)CC3)cc2)cc1 [Compound A225, 1-(5-tert-Butyl-2-p-tolyl-2H-pyrazol-3-yl)-3-{4-[1-(2-pyridin-3-yl-thiazole-4-carbonyl)-piperidin-4-ylmethyl]-phenyl}-urea]
Cc1ccc(-n2nc(C(C)(C)C)cc2NC(=O)Nc2ccc(CC3CCN(C(=O)c4csc(-c5ccncc5)n4)CC3)cc2)cc1 [Compound A227, 1-(5-tert-Butyl-2-p-tolyl-2H-pyrazol-3-yl)-3-{4-[1-(2-pyridin-4-yl-thiazole-4-carbonyl)-piperidin-4-ylmethyl]-phenyl}-urea]
Cc1ccc(-n2nc(C(C)(C)C)cc2NC(=O)Nc2ccc(CC3CCN(C(=O)c4cccnc4N)CC3)cc2)cc1 [Compound A231, 1-{4-[1-(2-Amino-pyridine-3-carbonyl)-piperidin-4-ylmethyl]-phenyl}-3-(5-tert-butyl-2-p-tolyl-2H-pyrazol-3-yl)-urea]
Cc1ccc(-n2nc(C(C)(C)C)cc2NC(=O)Nc2ccc(CC3CCN(C(=O)c4cc5ccccc5o4)CC3)cc2)cc1 [Compound A232, 1-{4-[1-(Benzofuran-2-carbonyl)-piperidin-4-ylmethyl]-phenyl}-3-(5-tert-butyl-2-p-tolyl-2H-pyrazol-3-yl)-urea]
Cc1ccc(-n2nc(C(C)(C)C)cc2NC(=O)Nc2ccc(CC3CCN(C(=O)c4ccc(S(C)(=O)=O)cc4Cl)CC3)cc2)cc1 [Compound A233, 1-(5-tert-Butyl-2-p-tolyl-2H-pyrazol-3-yl)-3-{4-[1-(2-chloro-4-methanesulfonyl-benzoyl)-piperidin-4-ylmethyl]-phenyl}-urea]
Cc1ccc(-n2nc(C(C)(C)C)cc2NC(=O)Nc2ccc(CC3CCN(C(=O)c4cccnc4Cl)CC3)cc2)cc1 [Compound A235, 1-(5-tert-Butyl-2-p-tolyl-2H-pyrazol-3-yl)-3-{4-[1-(2-chloro-pyridine-3-carbonyl)-piperidin-4-ylmethyl]-phenyl}-urea]
Cc1ccc(-n2nc(C(C)(C)C)cc2NC(=O)Nc2ccc(CC3CCN(C(=O)Cc4ccccc4F)CC3)cc2)cc1 [Compound A236, 1-(5-tert-Butyl-2-p-tolyl-2H-pyrazol-3-yl)-3-(4-{1-[2-(2-fluoro-phenyl)-acetyl]-piperidin-4-ylmethyl}-phenyl)-urea]
Cc1ccc(-n2nc(C(C)(C)C)cc2NC(=O)Nc2ccc(CC3CCN(C(=O)c4ccco4)CC3)cc2)cc1 [Compound A237, 1-(5-tert-Butyl-2-p-tolyl-2H-pyrazol-3-yl)-3-{4-[1-(furan-2-carbonyl)-piperidin-4-ylmethyl]-phenyl}-urea]
CCCCC#CC(=O)N1CCC(Cc2ccc(NC(=O)Nc3cc(C(C)(C)C)nn3-c3ccc(C)cc3)cc2)CC1 [Compound A238, 1-(5-tert-Butyl-2-p-tolyl-2H-pyrazol-3-yl)-3-[4-(1-hept-2-ynoyl-piperidin-4-ylmethyl)-phenyl]-urea]
Cc1ccc(-n2nc(C(C)(C)C)cc2NC(=O)Nc2ccc(CC3CCN(C(=O)c4cc(O)nc5ccccc45)CC3)cc2)cc1 [Compound A240, 1-(5-tert-Butyl-2-p-tolyl-2H-pyrazol-3-yl)-3-{4-[1-(2-hydroxy-quinoline-4-carbonyl)-piperidin-4-ylmethyl]-phenyl}-urea]
